Test results from US4336400A, “3-(Hydroxy or hydroxymethyl)-4-hydroxy-alpha(aminomethyl)benzyl alcohols and methods of use” (Sterling Drug Inc., priority 1978, dated 1982).
Where “and” joins values, the source holds several entries; their conditions need not be identical. Equal values may be shown once. Where a name gives a salt, the structure may show the parent alone.

Key:
[1] = system: guinea pig bronchioles constricted by carbachol; assay: Bronchodilator Test Method II: in vitro, perfused guinea pig lung, bronchioles constricted by carbachol; details: for Bronchodilator Action, Duration (min) Mean: dose mcg(base) given
Protocol: Bronchodilator activity was tested in anesthetized dogs (Test Method I) and in vitro on the perfused guinea pig lung (Test Method II), using the following pharmacological test procedures:
In this method bronchodilator activity in vitro was determined by testing the effect of graded doses of the test compounds on guinea pig bronchioles constricted by carbachol, using the technique reported by Sollman and von Oettingen, Proc. Soc. Exp. Biol. Med., 25, 692 (1928) as modified by Tainter, Pedden, and James, J. Pharm. Exp. Ther., 51, 371 (1934) and by Luduena, von Euler, Tuller, and Lands, Arch. Intern. Pharmacol., III, 392 (1957).

[2] = Solubility, pH of solution and precipitation; format: physicochemical; details: for precipitation when the pH was adjusted to 7.0 with N/10 sodium hydroxide: 1 percent aqueous solution, pH 7.0; for precipitation on dilution of a 1 percent dimethyl sulfoxide solution with three volumes of water: 1 percent solution in dimethyl sulfoxide; for precipitation on dilution of a 1 percent glycerol formal solution with three volumes of water: 1 percent solution in glycerol formal
diastolic blood pressure = assay: Effect on diastolic blood pressure in the anesthetized dog, intravenous; format: in vivo; details: i.v., dose (salt) mcg/kg
Protocol: Injections were repeated at 20-30 minutes.
Cardiovascular Studies The effect of a rapid intravenous injection on the heart rate was conducted in anesthetized dogs under normal respiration. A few open-chest dogs were also tested. Increase in heart rate was measured by using an electrocardiograph attached to the dog. Readings were taken every 0.5-1 minutes for the first 10 minutes and every 2-5 minutes thereafter until recovery. In some cases, several doses and more than one compound were tested alternately in the same dog. The blood pressure effect was simultaneously recorded.

normal airway pressure = assay: Control bronchoconstriction in anesthetized dog; format: in vivo; details: i.v., carbachol 4 to 6 micrograms per kilogram, histamine diphosphate 35 to 45 micrograms per kilogram, majority of test animals
Protocol: Test Method I: Male and female dogs weighing 9-18 kg. each were anesthetized with pentobarbital sodium (30 mg./kg. i.v.). Each animal, with thorax opened at the mid-sternum, was maintained under artificial ventilation using a constant volume pump (250 ml./stroke; ten to twelve strokes per minute) attached to the tracheal cannula. The flow of air was controlled by a glass or plastic valve which closed and opened respectively on inflow and outflow of the air to and from the tracheal cannula. Bronchoconstriction and/or bronchodilatation were measured from changes in the basal airway pressure reflected by a transducer attached to the sidearm of the cannula relayed to a polygraph.
Control bronchoconstrictions were induced by intravenous injections of carbachol (choline chloride carbamate) in doses ranging from 4 to 6 micrograms per kilogram or histamine diphosphate in doses ranging from 35 to 45 micrograms per kilogram.

SMILES | ED50 ([1]; Doryl conc. 1:5 million) | Bronchodilator Action, Duration (min) Mean ([1]; Doryl conc. 1:5 million) [min] | other results
CCCC(=O)Oc1ccc(C(O)CNC(C)(C)C)cc1OC(=O)CCC.Cl (stereo not drawn) [Example 1, 3,4-bis(butyryloxy)-alpha-(tert-butylaminomethyl)-benzyl alcohol hydrochloride] | 0.23 mcg(base) | 9 ± 1.0 | precipitation when the pH was adjusted to 7.0 with N/10 sodium hydroxide [2]: a precipitate formed
CC(C)C(=O)Oc1ccc(C(O)CNC(C)(C)C)cc1OC(=O)C(C)C.Cl (stereo not drawn) [Example 2, 3,4-bis(isobutyryloxy)-alpha-(tert-butylaminomethyl)-benzyl alcohol hydrochloride] | 0.28 mcg(base) | 9 ± 1.1 | 
CC(C)CC(=O)Oc1ccc(C(O)CNC(C)(C)C)cc1OC(=O)CC(C)C.Cl (stereo not drawn) [Example 3, 3,4-bis(isovaleryloxy)-alpha-(tert-butylaminomethyl)benzyl alcohol hydrochloride] | 0.6 mcg(base) | 18 ± 4 | precipitation when the pH was adjusted to 7.0 with N/10 sodium hydroxide [2]: a precipitate formed
CCC(C)C(=O)Oc1ccc(C(O)CNC(C)(C)C)cc1OC(=O)C(C)CC.Cl (stereo not drawn) [Example 4, 3,4-bis(2-methylbutanoyloxy)-alpha-(tert-butylaminomethyl)benzyl alcohol hydrochloride] | 0.45 mcg(base) | 20 ± 3 | 
CC(C)(C)NCC(O)c1ccc(OC(=O)C(C)(C)C)c(OC(=O)C(C)(C)C)c1.Cl (stereo not drawn) [Example 5, 3,4-bis(pivalyloxy)-alpha-(tert-butylaminomethyl)-benzyl alcohol hydrochloride] | 0.94 mcg(base) | 18 ± 4.2 | 
CCC(C)CC(=O)Oc1ccc(C(O)CNC(C)(C)C)cc1OC(=O)CC(C)CC.Cl (stereo not drawn) [Example 6, 3,4-bis(3-methylpentanoyloxy)-alpha-(tert-butylaminomethyl)benzyl alcohol hydrochloride] | 1.3 mcg(base) | 43 ± 3.7 | 
CC(C)(C)CC(=O)Oc1ccc(C(O)CNC(C)(C)C)cc1OC(=O)CC(C)(C)C.Cl (stereo not drawn) [Example 7, 3,4-bis(3,3-dimethylbutanoyloxy)-alpha-(tert-butylaminomethyl)benzyl alcohol hydrochloride] | 23 mcg(base) | 85 ± 17 | 
CC(C)(C)NCC(O)c1ccc(OC(=O)C2(C)CC2)c(OC(=O)C2(C)CC2)c1.Cl (stereo not drawn) [Example 13, 3,4-bis(1-methylcyclopropanecarbonyloxy)-alpha-(tert-butylaminomethyl)benzyl alcohol hydrochloride] | 0.45 mcg(base) | 15 ± 1.7 | 
CC(C)(C)NCC(O)c1ccc(OC(=O)C2CCCCC2)c(OC(=O)C2CCCCC2)c1.Cl (stereo not drawn) [Example 15, 3,4-bis(cyclohexanecarbonyloxy)-alpha-(tert-butylaminomethyl)benzyl alcohol hydrochloride] | 1.3 mcg(base) | 53 ± 7 | precipitation on dilution of a 1 percent dimethyl sulfoxide solution with three volumes of water [2]: no precipitate formed
CC(C)(C)NCC(O)c1ccc(OC(=O)c2ccccc2)c(OC(=O)c2ccccc2)c1.Cl (stereo not drawn) [Example 29, 3,4-bis(benzoyloxy)-alpha-(tert-butylaminomethyl)-benzyl alcohol hydrochloride] | 1.1 mcg(base) | 34 ± 6.4 | precipitation on dilution of a 1 percent dimethyl sulfoxide solution with three volumes of water [2]: no precipitate formed; precipitation on dilution of a 1 percent glycerol formal solution with three volumes of water [2]: no precipitate formed
Cc1ccc(C(=O)Oc2ccc(C(O)CNC(C)(C)C)cc2OC(=O)c2ccc(C)cc2)cc1 (stereo not drawn) [Example 30, 3,4-bis(p-toluyloxy)-alpha-(tert-butylaminomethyl)-benzyl alcohol methanesulfonate] |  |  | Mean Decrease in Diastolic Blood Pressure in % (diastolic blood pressure): 2% and 11% and 11.5%
COc1ccc(C(=O)Oc2ccc(C(O)CNC(C)(C)C)cc2OC(=O)c2ccc(OC)cc2)cc1.Cl (stereo not drawn) [Example 33, 3,4-bis(p-anisoyloxy)-alpha-(tert-butylaminomethyl)-benzyl alcohol hydrochloride] | 6.9 mcg(base) | 32 ± 5 | precipitation on dilution of a 1 percent dimethyl sulfoxide solution with three volumes of water [2]: no precipitate formed; precipitation on dilution of a 1 percent glycerol formal solution with three volumes of water [2]: no precipitate formed
CC(C)CC(=O)Oc1cc(C(O)CNC(C)(C)C)ccc1OC(=O)C(C)(C)C.Cl (stereo not drawn) [Example 71, 3-(isovaleryloxy)-4-(pivalyloxy)-alpha-(tert-butylaminomethyl)benzyl alcohol hydrochloride] | 0.63 mcg(base) | 26 | 
CCC(NC1CCCC1)C(O)c1ccc(OC(=O)CC(C)C)c(OC(=O)CC(C)C)c1.Cl (stereo not drawn) [Example 138, 3,4-bis(isovaleryloxy)-alpha-[1-(cyclopentylamino)propyl]benzyl alcohol hydrochloride] | 0.46 mcg(base) | 25.4 ± 3.5 | 
COc1ccc(C(=O)Oc2ccc(C(O)CNC(C)(C)C)cc2OC(=O)c2ccccc2)cc1.Cl (stereo not drawn) [Example 143, 3-benzoyloxy-4-(p-anisoyloxy)-alpha-(tert-butylaminomethyl)benzyl alcohol hydrochloride] |  |  | ED50 ([1]; Doryl conc. 1:10 million): 1.53 mcg(base); Bronchodilator Action, Duration (min) Mean ([1]; Doryl conc. 1:10 million): 29.2 ± 10.2 min
CCC(NC(C)(C)C)C(O)c1ccc(OC(=O)c2ccc(C)cc2)c(OC(=O)c2ccc(C)cc2)c1 (stereo not drawn) [Example 144, 3,4-bis(p-toluyloxy)-alpha-[1-(tert-butylamino)-propyl]benzyl alcohol hydrochloride] |  | 83 ± 26.8 | 
COc1ccc(C(=O)Oc2ccc(C(O)CNC(C)(C)C)cc2COC(C)=O)cc1 (stereo not drawn) [Example 151, 3-(acetoxymethyl)-4-(p-anisoyloxy)-alpha-(tert-butylaminomethyl)benzyl alcohol methanesulfonate] |  |  | Mean Decrease in Diastolic Blood Pressure in % (diastolic blood pressure): 10%
CC(C)(C)NCC(O)c1ccc(O)c(O)c1 (stereo not drawn) [Ref. Cpd. I, 3,4-Dihydroxy-alpha-(tert-butylaminomethyl)benzyl alcohol, reference compound] | 0.18 mcg(base) | 5 ± 1.4 | 
CC(C)NCC(O)c1ccc(O)c(O)c1 (stereo not drawn) [Ref. Cpd. II, 3,4-Dihydroxy-alpha-(isopropylaminomethyl)benzyl alcohol, reference compound] |  | 5 | 
C[N+](C)(C)CCOC(N)=O [carbachol, choline chloride carbamate] |  |  | increase in the normal airway pressure or amplitude (normal airway pressure): 100-200%
NCCc1c[nH]cn1 [histamine diphosphate] |  |  | increase in the normal airway pressure or amplitude (normal airway pressure): 100-200%
